Results published in ChEMBL document CHEMBL1142047, “Identification of a 5-HT4 receptor antagonist clinical candidate through side-chain modification” (Bioorg Med Chem Lett, 2005).

Tests used:
[1] = biological target: 5-hydroxytryptamine receptor 4 (Homo sapiens, UniProt Q13639); experiment: Inhibitory constant for human cloned 5-HT4 receptor
in vivo [2] = conditions: dog, plasma, iv, 0.25 mg/kg
[3] = Volume of distribution in dog (n=7; dose 0.25 mg/kg iv or 0.5 mg/kg po); conditions: in vivo
[4] = Time taken for half of the concentration to degrade upon intravenous administration (n=7; dose 0.25 mg/kg iv); conditions: dog, in vivo
[5] = (§1) Bioavailability in dog (dose 0.25 mg/kg i.v. and 0.5 mg/kg p.o.); conditions: in vivo, po
[6] = Time taken for half of the concentration to degrade upon oral administration; assay type: ADME, organism-based, Canis lupus familiaris; conditions: dog, in vivo
[7] = Time taken for half of the concentration to degrade upon oral administration (n=7; 0.5 mg/kg po); assay type: ADME, organism-based, Canis lupus familiaris; design: dose 0.5 mg/kg, route oral; conditions: dog, in vivo
Histamine H1 receptor = Histamine H1 receptor (Rattus norvegicus, UniProt P31390)
Chain of Histamine H1 receptor (P31390 whole entry): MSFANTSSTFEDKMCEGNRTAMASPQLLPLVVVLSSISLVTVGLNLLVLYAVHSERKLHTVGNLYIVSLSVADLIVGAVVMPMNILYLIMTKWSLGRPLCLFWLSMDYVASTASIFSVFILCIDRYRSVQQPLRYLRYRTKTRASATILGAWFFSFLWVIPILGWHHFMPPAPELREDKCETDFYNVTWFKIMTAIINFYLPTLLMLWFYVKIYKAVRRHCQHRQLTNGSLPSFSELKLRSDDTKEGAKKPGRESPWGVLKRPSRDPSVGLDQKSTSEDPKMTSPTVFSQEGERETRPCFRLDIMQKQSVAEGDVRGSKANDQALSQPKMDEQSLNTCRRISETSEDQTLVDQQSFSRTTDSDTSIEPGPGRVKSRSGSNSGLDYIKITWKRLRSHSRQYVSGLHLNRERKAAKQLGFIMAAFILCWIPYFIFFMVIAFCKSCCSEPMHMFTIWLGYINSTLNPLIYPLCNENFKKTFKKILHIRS

[8] = as §1; assay type: ADME, organism-based, Canis lupus familiaris; conditions: in vivo, po
[9] = Time taken for half of the concentration to degrade upon intravenous administration (n=8; dose 0.25 mg/kg iv); assay type: ADME, organism-based, Canis lupus familiaris; design: dose 0.25 mg/kg, route intravenous; conditions: dog, in vivo
[10] = Volume of distribution in dog (n=8; dose 0.25 mg/kg iv or 0.5 mg/kg po); assay type: ADME, organism-based, Canis lupus familiaris; conditions: in vivo, read-out: Vz
[11] = Plasma clearance in dog (n=8; dose 0.25 mg/kg iv or 0.5 mg/kg po); assay type: ADME, organism-based, Canis lupus familiaris
in vivo [12] = conditions: rat
[13] = Bioavailability in rat; assay type: ADME, organism-based; conditions: in vivo
[14] = Half-life in human; assay type: ADME
[15] = Time taken for half of the concentration to degrade upon intravenous administration (n=12; dose 0.25 mg/kg iv); conditions: dog, in vivo
[16] = Volume of distribution in dog (n=12; dose 0.25 mg/kg iv or 0.5 mg/kg po); conditions: in vivo
in vivo [17] = conditions: dog, plasma, iv, 0.25 mg/kg; remark: listed apart in the source
[18] = Percentage bioavailability (n=12; dose 0.25 mg/kg iv or 0.5 mg/kg po); assay type: ADME, organism-based, Canis lupus familiaris; conditions: dog, in vivo
[19] = Intrinsic clearance of compound in human liver microsomes
[20] = Intrinsic clearance of compound in dog liver microsomes

Chain of 5-hydroxytryptamine receptor 4 (Q13639 whole entry): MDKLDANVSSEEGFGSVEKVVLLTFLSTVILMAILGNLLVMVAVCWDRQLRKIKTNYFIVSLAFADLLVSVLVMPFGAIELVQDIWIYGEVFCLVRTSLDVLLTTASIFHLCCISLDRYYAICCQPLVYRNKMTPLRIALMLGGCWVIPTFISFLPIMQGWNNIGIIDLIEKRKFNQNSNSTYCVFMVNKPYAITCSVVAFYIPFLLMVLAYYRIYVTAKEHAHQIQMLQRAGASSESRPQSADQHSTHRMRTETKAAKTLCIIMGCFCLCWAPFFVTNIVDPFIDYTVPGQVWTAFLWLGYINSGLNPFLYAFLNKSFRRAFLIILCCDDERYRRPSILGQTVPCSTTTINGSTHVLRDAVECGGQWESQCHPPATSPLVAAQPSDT

Row | Ki [1] [nM] | Vd [3] [L/kg] | half-life [4] [h] | bioavailability [5] [%] | Compound | also measured
1 | 0.126 | 1.5 | 0.7 | 100 | CC1(C)CCN(S(=O)(=O)CCCN2CCC(CNC(=O)c3cccc4c3OCCO4)CC2)CC1 | clearance (in vivo [2]): 27 mL/min/kg
2 | 0.126 | 0.7 | 1.3 | 51 | CC(=O)N1CCN(S(=O)(=O)CCCN2CCC(CNC(=O)c3cccc4c3OCCO4)CC2)CC1 | clearance (in vivo [2]): 6 mL/min/kg; half-life [6]: 4.6 h
3 | 0.316 | 0.3 | 1.2 | 90 | CS(=O)(=O)N1CCN(S(=O)(=O)CCCN2CCC(CNC(=O)c3cccc4c3OCCO4)CC2)CC1 | half-life [7]: 3.6 h
4 | 0.126 | – | – | – | CC(C)S(=O)(=O)N1CCN(S(=O)(=O)CCCN2CCC(CNC(=O)c3cccc4c3OCCO4)CC2)CC1 | –
5 | 0.0631 | 1.4 | 0.5 | 15 | CCCC1CCN(S(=O)(=O)CCCN2CCC(CNC(=O)c3cccc4c3OCCO4)CC2)CC1 | clearance (in vivo [2]): 33 mL/min/kg
6 | 0.251 | – | – | – | CN1CCN(S(=O)(=O)CCCN2CCC(CNC(=O)c3cccc4c3OCCO4)CC2)CC1 | IC50 (Histamine H1 receptor): 100 nM
7 | 0.0501 | – | – | – | O=C(NCC1CCN(CCCS(=O)(=O)N2CCN(c3ccc(F)cc3)CC2)CC1)c1cccc2c1OCCO2 | –
8 | 0.158 | – | – | – | O=C(NCC1CCN(CCCS(=O)(=O)N2CCNCC2)CC1)c1cccc2c1OCCO2 | bioavailability [8]: 33%; half-life [9]: 37 h; Vd [10]: 34 L/kg; clearance [11]: 11 mL/min/kg
9 | 0.1 | – | – | – | O=C(NCC1CCN(CCCS(=O)(=O)N2CCN(C(=O)c3ccco3)CC2)CC1)c1cccc2c1OCCO2 | bioavailability [8]: 64%; half-life [9]: 1 h; Vd [10]: 0.2 L/kg; clearance [11]: 2 mL/min/kg
10 | 0.0158 | – | – | – | O=C(NCC1CCN(CCCS(=O)(=O)N2CCN(C3CCCC3)CC2)CC1)c1cccc2c1OCCO2 | bioavailability [8]: 42%; half-life [9]: 2.9 h; Vd [10]: 9.3 L/kg; clearance [11]: 37 mL/min/kg
11 | 0.0316 | – | – | – | CCCN1CCN(S(=O)(=O)CCCN2CCC(CNC(=O)c3cccc4c3OCCO4)CC2)CC1 | –
12 | 0.0251 | – | – | – | CCC(C)N1CCN(S(=O)(=O)CCCN2CCC(CNC(=O)c3cccc4c3OCCO4)CC2)CC1 (configuration not stated) | –
13 | 0.158 | – | – | – | O=C(NCC1CCN(CCCS(=O)(=O)N2CCN(Cc3cccnc3)CC2)CC1)c1cccc2c1OCCO2 | –
14 | 0.2 | – | – | – | O=C(NCC1CCN(CCCS(=O)(=O)N2CCCCC2)CC1)c1cccc2c1OCCO2 | –
15 | 0.794 | – | – | – | CCCCN1CCC(CNC(=O)c2cccc3c2OCCO3)CC1 | half-life (in vivo [12]): < 1 h; bioavailability [13]: 18%; half-life [14]: 60 h
16 | 0.0316 | 3.6 | 3 | 72 | CC(C)N1CCN(S(=O)(=O)CCCN2CCC(CNC(=O)c3cccc4c3OCCO4)CC2)CC1 | clearance (in vivo [2]): 14 mL/min/kg
17 | 0.1 | 0.7 | 0.7 | 82 | CCCS(=O)(=O)N1CCN(S(=O)(=O)CCCN2CCC(CNC(=O)c3cccc4c3OCCO4)CC2)CC1 | clearance (in vivo [2]): 12 mL/min/kg
18 | 0.0794 | – | – | – | O=C(NCC1CCN(CCCS(=O)(=O)N2CCN(S(=O)(=O)N3CCCC3)CC2)CC1)c1cccc2c1OCCO2 | –
19 | 0.251 | 0.3 | 0.7 | 65 | O=C(NCC1CCN(CCCS(=O)(=O)N2CCN(c3ncccn3)CC2)CC1)c1cccc2c1OCCO2 | clearance (in vivo [2]): 5 mL/min/kg
20 | 0.0251 | – | – | – | O=C(NCC1CCN(CCCS(=O)(=O)N2CCC3(CCCC3)CC2)CC1)c1cccc2c1OCCO2 | –
21 | 0.398 | – | – | 76 | O=C(NCC1CCN(CCCS(=O)(=O)N2CCOCC2)CC1)c1cccc2c1OCCO2 | half-life [15]: 1 h; Vd [16]: 1.6 L/kg; clearance (in vivo [17]): 7 mL/min/kg
22 | 0.0316 | – | – | – | O=C(NCC1CCN(CCCS(=O)(=O)N2CCN(S(=O)(=O)c3ccc(F)cc3)CC2)CC1)c1cccc2c1OCCO2 | –
23 | 0.0501 | 3.6 | 3.1 | 94 | CCN1CCN(S(=O)(=O)CCCN2CCC(CNC(=O)c3cccc4c3OCCO4)CC2)CC1 | –

Row | Compound | Ki [1] [nM] | Vd [3] [L/kg] | half-life [4] [h] | bioavailability [5] [%] | also measured
24 | CCCCN1CCC(CNC(=O)c2c3n(c4ccccc24)CCCO3)CC1 [PIBOSEROD] | 0.251 | – | – | – | half-life [15]: 7.1 h; Vd [16]: 5 L/kg; bioavailability [18]: 71%; clearance (in vivo [17]): 8 mL/min/kg; microsomal CLint [19]: 5 µL/min/mg; microsomal CLint [20]: 4 µL/min/mg
